{
  "source": "paper PMC9256654",
  "about": "“Mechanistic basis for maintenance of CHG DNA methylation in plants” (Nature Communications, 2022)",
  "target": "T1, CMT3 (Arabidopsis thaliana, UniProt Q94F88)",
  "T1 construct": "residues 42-839; N-terminal His6-SUMO tag removed by ULP1; E. coli BL21(DE3) RIL",
  "T1 sequence (Q94F88 42-839)": "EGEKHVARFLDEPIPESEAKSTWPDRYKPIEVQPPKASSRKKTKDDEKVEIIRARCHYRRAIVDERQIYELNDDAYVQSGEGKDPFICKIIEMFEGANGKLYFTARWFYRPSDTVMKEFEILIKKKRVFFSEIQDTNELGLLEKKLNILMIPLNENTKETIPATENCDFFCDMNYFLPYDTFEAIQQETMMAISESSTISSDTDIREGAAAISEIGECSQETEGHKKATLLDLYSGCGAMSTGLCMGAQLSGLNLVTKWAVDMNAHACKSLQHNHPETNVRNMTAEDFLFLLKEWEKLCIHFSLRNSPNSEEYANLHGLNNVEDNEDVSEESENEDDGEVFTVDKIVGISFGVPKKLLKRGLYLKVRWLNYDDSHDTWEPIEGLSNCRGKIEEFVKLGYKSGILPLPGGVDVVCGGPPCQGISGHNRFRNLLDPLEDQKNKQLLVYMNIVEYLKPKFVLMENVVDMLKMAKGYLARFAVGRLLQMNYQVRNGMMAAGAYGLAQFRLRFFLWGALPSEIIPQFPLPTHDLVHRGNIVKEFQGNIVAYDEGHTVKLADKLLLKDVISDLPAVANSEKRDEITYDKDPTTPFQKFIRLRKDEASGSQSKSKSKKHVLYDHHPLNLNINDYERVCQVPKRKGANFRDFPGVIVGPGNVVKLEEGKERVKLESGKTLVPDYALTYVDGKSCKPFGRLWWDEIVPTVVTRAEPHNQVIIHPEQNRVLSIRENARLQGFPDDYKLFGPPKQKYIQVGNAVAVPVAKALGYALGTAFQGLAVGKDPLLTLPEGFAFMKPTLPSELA",
  "experiment": "radiometric DNA methylation assay (3H-methyl transfer, nylon membrane)",
  "assay_type": "biochemical",
  "settings": "labelled compound; 0.56 uM [3H]SAM plus 1.96 uM SAM; 4.0 uM DNA; 4.0 uM histone peptide; no added NaCl; pH 8.0, 37 C, 1 h",
  "data": [
    {"smiles": "C[S+](CC[C@H](N)C(=O)O)C[C@H]1O[C@@H](n2cnc3c(N)ncnc32)[C@H](O)[C@@H]1O", "note": "(stereo partly drawn) [SAM, S-adenosyl-L-methionine]", "values": [
      {"measurement": "radiometric DNA methylation assay (3H-methyl transfer, nylon membrane)", "value": "All the rest of the reaction conditions for CMT3 were the same as those for ZMET2"}
    ]}
  ]
}
